Results: US20220387396A1, “METHODS OF TREATING THE SYMPTOMS OF AUTISM SPECTRUM DISORDER” (MapLight Therapeutics, Inc., priority 2019, published 2022)
Values joined by “and” are separate entries in the source; they are usually repeats but may differ in a detail not shown here. Equal values may be shown once. Marks after values point to notes of the source that are not given here. One block for each compound: values may come before it.

Key:
[1] = biological target: T1, human 5-HT1b (h5-HT1b) receptors (Homo sapiens, UniProt P28222); assay: SPA-based 35S-GTPγS binding assay, human 5-HT1b; format: biochemical; conditions: for EC50: ten concentrations in duplicate
T1 construct: expressed in transfected cells
T1 sequence (P28222 whole entry): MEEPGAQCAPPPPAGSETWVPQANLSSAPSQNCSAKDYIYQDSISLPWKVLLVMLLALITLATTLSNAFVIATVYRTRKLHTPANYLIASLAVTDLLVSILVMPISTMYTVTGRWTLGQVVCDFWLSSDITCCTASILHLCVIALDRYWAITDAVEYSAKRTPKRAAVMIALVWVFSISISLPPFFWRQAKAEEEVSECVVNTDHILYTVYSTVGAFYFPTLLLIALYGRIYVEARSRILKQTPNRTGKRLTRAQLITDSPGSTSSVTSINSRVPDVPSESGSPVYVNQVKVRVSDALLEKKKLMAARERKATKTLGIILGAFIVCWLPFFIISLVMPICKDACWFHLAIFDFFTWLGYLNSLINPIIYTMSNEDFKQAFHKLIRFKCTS

[2] = biological target: T2, rat recombinant 5-HT1b (r5-HT1b) receptors (Rattus norvegicus, UniProt P28564); assay: SPA-based 35S-GTPγS binding assay, rat 5-HT1b; format: biochemical; conditions: for EC50: ten concentrations in duplicate
T2 construct: expressed in transfected cells
T2 sequence (P28564 whole entry): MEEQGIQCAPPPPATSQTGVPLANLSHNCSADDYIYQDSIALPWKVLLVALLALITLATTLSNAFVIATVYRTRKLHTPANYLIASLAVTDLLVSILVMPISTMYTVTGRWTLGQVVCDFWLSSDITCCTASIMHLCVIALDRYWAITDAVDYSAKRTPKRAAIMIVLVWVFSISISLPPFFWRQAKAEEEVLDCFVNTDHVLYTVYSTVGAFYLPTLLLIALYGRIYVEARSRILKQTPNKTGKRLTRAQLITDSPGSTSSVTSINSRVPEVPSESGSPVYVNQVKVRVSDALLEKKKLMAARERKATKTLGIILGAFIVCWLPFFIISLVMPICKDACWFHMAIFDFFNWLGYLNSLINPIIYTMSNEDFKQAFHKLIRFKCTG

5-HT1b receptor [3] = biological target: T3, 5-HT1b receptor (Homo sapiens, UniProt P28222); assay: Radioligand binding competition assay with 3H-5-CT; conditions: for Ki: 3H-5-CT, derived from IC50 using Cheng-Prusoff equation
T3 sequence (P28222 whole entry): as the sequence (P28222 whole entry) above
Description: The Ki values were derived from IC50 values using Cheng-Prusoff equation.

[4] = CSF exposure in c57/B16 mice after i.p. dosing
resident CD-1 mice = assay: Resident-Intruder (RI) assay, CD-1 resident / C57BL/6 intruder; format: in vivo, mouse; conditions: CD-1 resident mice, cross-over, N=25, zolmitriptan 10 mg/kg, risperidone 0.03 mg/kg, mean; for Attack Time (s): 5 min period
Description: The resident mice were isolated for 1 week prior to testing aggressive behavior, while the intruders were group housed (4 per cage) throughout the study. All mice were given ad libitum food and water. Following the 1-week isolation period, aggressive behaviors were recorded using a front-facing camera daily (Monday-Friday) for up to 2 weeks to attain a stable baseline prior to evaluating drug effects. The interaction was scored using Borris open source event logging software to score the number of total initiated attacks by the resident and the cumulative duration of those attacks. Single fight bouts lasting longer than 60 seconds were stopped and the intruder was subsequently removed from the resident cage. […] Attack time was measured over a 5 min period as a cross over design.

[5] = CSF exposure in adult male CD-1 mice after i.p. dosing; conditions: male CD-1 mice dosed with zolmitriptan 3 and 10 mg/kg i.p.
resident BALB/c mice = assay: Resident-Intruder (RI) assay, BALB/c resident / C57BL/6 intruder; format: in vivo, mouse
Description: Correspondingly, the RI assay has been used preclinically to study the effect of drugs on rodent aggression (Miczek et al., 2001). The RI assay typically relies on the interpretation and scoring of offensive (resident animal) behavior patterns and may also include analysis of defensive (intruder animal) behavior patterns as well. […] The resident mice were isolated for 1 week prior to testing aggressive behavior, while the intruders were group housed (4 per cage) throughout the study. All mice were given ad libitum food and water. Following the 1-week isolation period, aggressive behaviors were recorded using a front-facing camera daily (Monday-Friday) for up to 2 weeks to attain a stable baseline prior to evaluating drug effects. The interaction was scored using Borris open source event logging software to score the number of total initiated attacks by the resident and the cumulative duration of those attacks. Single fight bouts lasting longer than 60 seconds were stopped and the intruder was subsequently removed from the resident cage. […] The resident mice were treated with vehicle for two consecutive days and then balanced for a two arm (3 and 10 mg/kg) cross over study. […] The consecutive fourth and fifth days were vehicle treatment followed by a final cross over treatment day on the sixth day.

[6] = system: VPA-exposed male c57/B16 mice; assay: 3-chamber Social Interaction Assay in valproic acid (VPA)-induced mouse model of ASD; format: in vivo; conditions: adult male c57/B16 mice previously exposed to VPA; 10 mg/kg i.p. 15 min before test; vs vehicle
Description: Specifically, sociability was evaluated in male c57/B16 mice that were previously exposed to valproic acid (VPA) via i.p. delivery of 500 mg/kg to their pregnant mothers at embryonic Day 13.
In this study, zolmitriptan was dissolved in 10% (2-Hydroxypropyl)-o-cyclodextrin in saline and administered intraperitoneally (i.p.) 15 minutes before mice were placed in the test chamber. Behavioral recordings were measured using an automated video tracking system (Noldus EthoVision v14) and analyzed and graphed using GraphPad Prism software v8. Sociability was assessed during a 10 min period in the 3-chamber Social Interaction Assay. The time spent (sec) in the social interaction zone (SIZ) in front of the juvenile novel C57/BL6 vs empty interaction zone (EIZ) were used to calculate the sociability scores for individual mice. Sociability index was calculated using SIZ/EIZ ratio. Social interaction preference was calculated using (SIZ)/(SIZ+EIZ)*100. Simultaneous recording up to 4 arenas were conducted for the social interaction assay. Paired and unpaired T tests were used as statistical tests.

[7] = Multiple ascending oral dose study in adult healthy volunteers (safety, tolerability, CSF PK); format: in vivo, human
Description: An investigation of the safety, tolerability and pharmacokinetic response of oral zolmitriptan following multiple ascending doses in adult healthy volunteer subjects was undertaken.
Zolmitriptan 2.5 mg per tablet or placebo tablet was administered 3 times per day (TID) for an up-titration period, treatment period of 7 days, and a down-titration period. The dose regimen is depicted in Table 1.
A lumbar puncture was completed on each subject to determine the concentration of zolmitriptan in the CSF. CSF samples were collected on day 5 of treatment for Cohort 1 and day 7 of treatment for Cohorts 2 and 3, and day 8 of treatment for cohort 4 and 5. The CSF collection was 2 hours after the morning dose (+/−30 minutes). CSF concentration was measured using a validated bioanalytical method.

5-HT1b receptor [8] = biological target: T3, 5-HT1b receptor; assay: 5-HT1b receptor occupancy and efficacy model, human dose prediction; conditions: for Zolmitriptan human dose: predicted dose; for Zolmitriptan [CSF]: predicted effective human CSF range
Description: Specifically, 5-HT1b receptor occupancy and efficacy models measured potency of zolmitriptan and NMDZ at the 5-HT1b receptor and the ratio of zolmitriptan: NDMZ in human CSF.
Using classical receptor theory, the receptor occupancy when considering two ligands (i.e., entities) can be predicted using the following relationship:
Total % occupancy=(% occupancy by A)+{[100%−(% occupancy by A)]×(% occupancy by B)} when considering a fixed concentration of both A and B.
The model was converted to predict the level of 5-HT1b activation (i.e., efficacy) by both zolmitriptan and NDMZ based on the concentration of zolmitriptan in the CSF by substituting Occupancy for Efficacy as predicted by the Clark equation {Efficacy=[L]/([L]+Ki); [L]=ligand concentration} for both zolmitriptan and NDMZ:
Total % Efficacy={[Zolmitriptan]/([Zolmitriptan]+Ki,Z)}+(100−{[Zolmitriptan]/([Zolmitriptan]+Ki,Z)}×{[NDMZ]/([NDMZ]+Ki,N)}

in vivo = conditions: male, CD-1, mouse, ip
[9] = male, c57/B16, mouse, CSF, ip, 10 mg/kg
[10] = BALB/c resident mice, 3 and 10 mg/kg i.p., 15 min pretreatment, 5 min interaction, cross-over vs vehicle

- EC50 [1]: 1.2 nM
- EC50 [2]: 7.4 nM
- Ki (5-HT1b receptor [3]): 0.95 nM
- c57/B16 mouse CSF Cmax (10 mg/Kg, i.p.) ([4]; 10 mg/Kg i.p.): 79.56 ng/mL
- Kp [4, 9]: 0.0312
Structure (SMILES): CNS(=O)(=O)CCc1ccc2[nH]cc(C3CCN(C)CC3)c2c1 [Naratriptan, naratriptan]

- c57/B16 mouse CSF Cmax (10 mg/Kg, i.p.) ([4]; 10 mg/Kg i.p.): 12.52 ng/mL
- Kp [4, 9]: 0.0015
Structure (SMILES): CN[C@@H]1CCc2[nH]c3ccc(C(N)=O)cc3c2C1 [Frovatriptan, frovatriptan]

- EC50 [1]: 8.8 nM
- EC50 [2]: 120 nM
- Ki (5-HT1b receptor [3]): 4.48 nM
- c57/B16 mouse CSF Cmax (10 mg/Kg, i.p.) ([4]; 10 mg/Kg i.p.): 13.46 ng/mL
- Kp [4, 9]: 0.0077
Structure (SMILES): CN1CCC[C@@H]1Cc1c[nH]c2ccc(CCS(=O)(=O)c3ccccc3)cc12 [Eletriptan, eletriptan]

Second part, the compound before the results:

Structure (SMILES): Cc1nc2n(c(=O)c1CCN1CCC(c3noc4cc(F)ccc34)CC1)CCCC2 [Risperidone]
- Attack Time (s) (resident CD-1 mice): 21.58* s
- Latency to Attack (resident CD-1 mice): 12.98 s

Structure (SMILES): CN(C)CCc1c[nH]c2ccc(Cn3cncn3)cc12 [Rizatriptan, rizatriptan]
- EC50 [2]: 210 nM
- c57/B16 mouse CSF Cmax (10 mg/Kg, i.p.) ([4]; 10 mg/Kg i.p.): 90.20 ng/mL
- Kp [4, 9]: 0.0466

Structure (SMILES): CNCCc1c[nH]c2ccc(C[C@H]3COC(=O)N3)cc12 [NDMZ, N-desmethyl zolmitriptan]
- Ki (5-HT1b receptor [3]): 1.18 nM
- potency relative to zolmitriptan at human 5-HT1b (5-HT1b receptor [3]; from Ki values): 2.83 fold
- metabolite NDMZ level in CSF ([4]; male c57/B16 mice dosed with zolmitriptan 10 mg/kg i.p.): below the lower limit of quantification
- metabolite NDMZ level [5]: below the lower limit of quantification

Structure (SMILES): CN(C)CCc1c[nH]c2ccc(C[C@H]3COC(=O)N3)cc12 [Zolmitriptan, zolmitriptan]
- attack time (resident BALB/c mice; [10]): reduction
- number of attacks (resident BALB/c mice; [10]): reduction in the number of attacks
- attack behavior, dose dependence (resident BALB/c mice; BALB/c resident mice, 3 and 10 mg/kg i.p., p<0.05, paired t-test): significant dose dependent effect of reduction in attack behavior
- normal locomotor activity (resident BALB/c mice; treated mice, 3 and 10 mg/kg): did not effect normal locomotor activity
- Attack Time (s) (resident CD-1 mice): 18.46*** s
- Attack Time (s) (resident CD-1 mice; listed as zolmitriptan): greater reduction in attack time
- Latency to Attack (resident CD-1 mice): 13.54 s
- sociability index (SIZ/EIZ ratio) [6]: increased the sociability index
- safety and tolerability ([7]; adult healthy volunteers, oral TID multiple ascending doses, all Cohorts): safe and well tolerated
- Kp at 2 h ([7]; human, CSF, oral, read-out: CSF: plasma ratio for exposure): 0.03
- CSF levels required for therapeutic effect, humans vs mice (fold lower) ([1]; extrapolated from species difference in EC50): about 8.3 fold
- EC50 [1]: 4 nM
- activity in GTPgS at CSF Cmax ([2]; CD-1 mouse, 3 mg/Kg i.p., CSF Cmax 18.8 nM): 36%
- activity in GTPgS at CSF Cmax ([2]; c57/Bl6 mouse, 10 mg/Kg i.p., CSF Cmax 62 nM): 65%
- difference between species in EC50 (rat vs human 5-HT1b) ([2]; rat EC50 relative to human EC50): 8.3 fold
- EC50 [2]: 33 nM
- Ki (5-HT1b receptor [3]): 3.34 nM
- concentration for 50% Total Efficacy relative to zolmitriptan EC50 (5-HT1b receptor [8]; combined effect of metabolite): 3.7 fold
- concentration of zolmitriptan in human CSF predicted to induce 50% efficacy (EC50) of 5-HT1b by zolmitriptan and NDMZ (5-HT1b receptor [8]; model prediction): 1.09 nM and 0.31 ng/ml
- Zolmitriptan human dose (5-HT1b receptor [8]; Activity EC20-EC80): 1.25 to 35 mg
- Zolmitriptan human dose (5-HT1b receptor [8]; Activity EC25-EC75): 1.7 to 30 mg
- Zolmitriptan human dose (5-HT1b receptor [8]; Activity EC30-EC70): 2.25 to 20 mg
- Zolmitriptan human dose (5-HT1b receptor [8]; Activity EC35-EC65): 3 to 15 mg
- Zolmitriptan human dose (5-HT1b receptor [8]; Activity EC40-EC60): 5 to 12.5 mg
- Zolmitriptan [CSF] (5-HT1b receptor [8]; Activity EC20-EC80): 0.078 to 1.24 ng/mL
- Zolmitriptan [CSF] (5-HT1b receptor [8]; Activity EC25-EC75): 0.103 to 0.93 ng/mL
- Zolmitriptan [CSF] (5-HT1b receptor [8]; Activity EC30-EC70): 0.135 to 0.713 ng/mL
- Zolmitriptan [CSF] (5-HT1b receptor [8]; Activity EC35-EC65): 0.167 to 0.577 ng/mL
- Zolmitriptan [CSF] (5-HT1b receptor [8]; Activity EC40-EC60): 0.207 to 0.465 ng/mL
- Cmax (in vivo; 3 mg/kg): 5.4 ng/mL
- Cmax (in vivo; 10 mg/kg): 34.4 ng/mL
- c57/B16 mouse CSF Cmax (10 mg/Kg, i.p.) ([4]; 10 mg/Kg i.p.): 17.83 ng/mL
- estimated effective CSF Cmax ([4]; c57/Bl6 ASD mouse model, 10 mg/Kg i.p.): 62 nM
- Kp ([4]; male, c57/B16, mouse, CSF, intraperitoneal, 10 mg/kg): 0.0076
- Cmax [4, 9]: 17.8 ng/mL
- Kp [4, 9]: 0.0076
